Reference: patent US20060257340A1, “Formulation for skin-lightening agents” (priority 2003, published 2006)
Entries after “also recorded” stand apart in the source; their conditions may differ. Marks after values point to notes of the source that are not given here.

Tests used:
[1] = tested on: skin pigmentation of Yucatan swine; assay: Reversibility of depigmentation (repigmentation) after treatment discontinuation; assay type: in vivo; conditions: 6 weeks after discontinuation following 12 weeks of topical treatment; 1% 4-cyclopentylresorcinol, 2% 4-cyclohexylresorcinol in HG/DMI/PG/EtOH (5/15/40/40)
Method: Each spot was topically treated with 20 μl of test solution applied twice daily, five days per week. This amounts to the same dose of active agent. Solutions were administered by pipetting the exact volume to the designated area with a micropipette and then spreading the solution. Each spot or test site on the animal's skin was graded 3 times a week on a scale of 0 to 4 for pigment change, erythema and scaling. Treatments were continued until pigmentation was reduced to a grade 1 level (marked uniform decrease in pigmentation) or for up to 12 weeks. Pigmentation was monitored for 6 weeks after discontinuation of treatment following 12 weeks of topical treatment with 1% 4-cyclopentylresorcinol and 2% 4-cyclohexylresorcinol in HG/DMI/PG/EtOH (5/15/40/40).

[2] = tested on: skin pigmentation of Yucatan swine; assay: Depigmenting effect of topical application on dark-skinned Yucatan swine (pigment grade); assay type: in vivo; conditions: for Mean pigment Grade +/− SD (Week 12): topical 20 μl twice daily, five days per week; for Mean pigment Grade +/− SD (Week 12) / mean pigment grade +/− SD: scale 0 to 4, 4 = normal skin color; for mean pigment grade +/− SD: collated experiments; for effect of HG/PG/DMI/EtOH vehicle on depigmenting action: HG/PG/DMI/EtOH with or without 2% (wt/wt) IPM, compared with PG/EtOH
Method: The following nonlimiting examples further illustrate certain preferred embodiments of the present invention. The formulations were tested experimentally on Yucatan swine with dark skin. The Yucatan pigskin shares many physiologic and morphologic characteristics with human skin. For example, as described in U.S. Pat. No. 5,470,567, the thickness and general morphology of epidermis and dermis, tritiated thymidine labeling pattern and index of epidermal cells, epidermal cell turnover time, as well as size, orientation, and distribution of vessels in skin are similar to that in humans. Varying concentrations of 4-cyclopentylresorcinol and 4-cyclohexylresorcinol were administered to the back of Yucatan swine using various carriers. Yucatan swine with dark skin were used in this study. Swine were obtained from Charles River Laboratories, Windham, Me., and Sinclair Laboratories, MO. Seven sites measuring approximately 3 cm×3 cm were marked on each side of the animal's spine, between the shoulder blade and hipbone. The sites were far enough apart so that there was no cross-over. Multiple treatments were performed on the back of each animal. Each animal in the experiment received the same treatments. Each spot was topically treated with 20 μl of test solution applied twice daily, five days per week. This amounts to the same dose of active agent. Solutions were administered by pipetting the exact volume to the designated area with a micropipette and then spreading the solution. Each spot or test site on the animal's skin was graded 3 times a week on a scale of 0 to 4 for pigment change, erythema and scaling. Treatments were continued until pigmentation was reduced to a grade 1 level (marked uniform decrease in pigmentation) or for up to 12 weeks. Results were analyzed using different types of statistical analysis, ANOVA, Kruskal-Wallis test and Dunnett's multiple comparison, as indicated below. ANOVA is a statistical test that assumes sampled data is from populations that follow a Gaussian bell-shaped distribution and which works well, especially with large numbers, even if the distribution is only approximately Gaussian. The Kruskal-Wallis test is a nonparametric test that compares three or more unpaired groups. The Dunnett's test is a procedure for comparing each experimental mean with the control mean. For each graph presented, it is indicated which statistical tests were performed.

Yucatan swine skin = conditions: in vivo
Method: Seven sites measuring approximately 3 cm×3 cm were marked on each side of the animal's spine, between the shoulder blade and hipbone. The sites were far enough apart so that there was no cross-over. Multiple treatments were performed on the back of each animal. Each animal in the experiment received the same treatments. Each spot was topically treated with 20 μl of test solution applied twice daily, five days per week. This amounts to the same dose of active agent. Solutions were administered by pipetting the exact volume to the designated area with a micropipette and then spreading the solution. Each spot or test site on the animal's skin was graded 3 times a week on a scale of 0 to 4 for pigment change, erythema and scaling. Treatments were continued until pigmentation was reduced to a grade 1 level (marked uniform decrease in pigmentation) or for up to 12 weeks.

[3] = 2% in HG/PG/DMI/EtOH (5/40/15/40)

Structure (SMILES)	repigmentation after discontinuation of treatment [1]	Mean pigment Grade +/− SD (Week 12) ([2]; 2% in DMI/HG/PG/EtOH, 0 = complete depigmentation)	mean pigment grade +/− SD [2, 3]	mean pigment grade +/− SD ([2]; 2% in HG/PG/DMI/EtOH + 2% IPM)	mean pigment grade +/− SD ([2]; 2% in PG/EtOH (3/7))	mean pigment grade +/− SD ([2]; 5% in PG/EtOH (5/5))	effect of HG/PG/DMI/EtOH vehicle on depigmenting action [2]	irritation (Yucatan swine skin)	pigmentation versus the same agent in PG/EtOH vehicle ([2]; 1% and 2% in HG/PG/DMI/EtOH compared with PG/EtOH)	pigmentation versus vehicle control ([2]; 1% and 2% in HG/PG/DMI/EtOH, Kruskal-Wallis test and Dunnett's multiple comparison)	Mean pigment Grade +/− SD (Week 12) ([2]; 1% in DMI/HG/PG/EtOH, 0 = complete depigmentation)	mean pigment grade +/− SD ([2]; 1% in HG/PG/DMI/EtOH (5/40/15/40))	mean pigment grade +/− SD ([2]; 1% in HG/PG/DMI/EtOH + 2% IPM)	mean pigment grade +/− SD ([2]; 1% in PG/EtOH (3/7), 0 = complete depigmentation)
Oc1ccc(C2CCCCC2)c(O)c1 [4-cyclohexylresorcinol]	signs of gradual repigmentation	3 +/− 0*	2.8 +/− 0.6*	2.4 +/− 1.1*	3.0 +/− 0.8	3.0 +/− 0*	improved the depigmenting action; also recorded: improved the depigmentation efficacy	No irritation was apparent						
Oc1ccc(C2CCCC2)c(O)c1 [4-cyclopentylresorcinol]	signs of gradual repigmentation		2.0 +/− 0.7*	1.4 +/− 0.9*	2.4 +/− 0.9*		improved the depigmentation efficacy	No irritation was apparent	not statistically different	statistically different from vehicle	2.8 +/− 0.4*	2.8 +/−0.6*	2.0 +/− 1.2*	3.3 +/− 0.7
